Experimental data from US10959432B2, “Microbiocidal oxadiazole derivatives” (Syngenta Participations AG, priority 2016, dated 2021).

Assays:
[1] = tested on: Glomerella laqenarium (Colletotrichum lagenarium); experiment: Fungicidal activity against Glomerella lagenarium (Colletotrichum lagenarium) liquid culture / cucumber / preventative (anthracnose); assay type: cell-based; details: Colletotrichum orbiculare; 20 ppm in the applied formulation; liquid culture in PDB, 24° C., 3 to 4 days after application; read-out: disease control compared to untreated control (inhibition of growth measured photometrically)
How it was run: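 Cryostored conidia mixed into potato dextrose broth and added to test compound (from DMSO solution) in microtiter plates. Incubated at 24 °C; growth inhibition read photometrically 3 to 4 days after application, as percent activity versus untreated check.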

[2] = tested on: Puccinia recondita f. sp. tritici; experiment: Fungicidal activity against Puccinia recondita f. sp. tritici / wheat / leaf disc curative (brown rust); assay type: in vivo; details: foliar, 200 ppm in the applied formulation, wheat leaf segments cv. Kanzler, curative (applied 1 day after inoculation), assessed 6 to 8 days after application, read-out: disease control compared to untreated control leaf disks
How it was run: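 Wheat cv. Kanzler leaf segments on agar, spore-inoculated, held dark at 19° C./75% RH; formulated compound in water sprayed 1 day post-inoculation (curative). Incubated 19° C., 75% RH, 12 h light/12 h dark; percent disease control vs untreated scored 6 to 8 days after application.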

[3] = tested on: Phakopsora pachyrhizi; experiment: Fungicidal activity against Phakopsora pachyrhizi / soybean / leaf disc preventative (Asian soybean rust); assay type: in vivo; details: foliar, 200 ppm in the applied formulation, soybean leaf disks, preventative (inoculated one day after application), assessed 12 to 14 days after application, read-out: disease control compared to untreated control leaf disks
How it was run: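 Soybean leaf discs on water agar sprayed with formulated compound diluted in water; spore suspension sprayed on lower leaf surface one day later. Incubated 24-36 h dark at 20° C, 75% rh, then 20° C, 12 h light/day, 75% rh. Percent disease control versus untreated scored 12 to 14 days after application.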

[4] = tested on: Puccinia recondita f. sp. tritici; experiment: Fungicidal activity against Puccinia recondita f. sp. tritici / wheat / leaf disc preventative (brown rust); assay type: in vivo; details: foliar, 200 ppm in the applied formulation, wheat leaf segments cv. Kanzler, preventative (inoculated 1 day after application), assessed 7 to 9 days after application, read-out: disease control compared to untreated control leaf disks
How it was run: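 Wheat cv. Kanzler leaf segments on agar sprayed with formulated compound diluted in water, inoculated with P. recondita spores 1 day later. Incubated at 19C, 75% rh, 12 h light/12 h dark; scored 7 to 9 days after application as percent disease control versus untreated segments. Test rate 200 ppm.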

CC(C)CCNC(=O)c1ccc(-c2noc(C(F)(F)F)n2)cc1 [Compound 3a.38, N-isopentyl-4-[5-(trifluoromethyl)-1,2,4-oxadiazol-3-yl]benzamide]
≥ 80%: inhibition at 20 ppm [1] | pest or weed control at 200 ppm [2] | pest or weed control at 200 ppm [3] | pest or weed control at 200 ppm [4]

CCC(O)CNC(=O)c1ccc(-c2noc(C(F)(F)F)n2)cc1 (stereo not shown) [Compound 3a.14, N-(2-hydroxybutyl)-4-[5-(trifluoromethyl)-1,2,4-oxadiazol-3-yl]benzamide]
≥ 80%: inhibition at 20 ppm [1] | pest or weed control at 200 ppm [2] | pest or weed control at 200 ppm [3] | pest or weed control at 200 ppm [4]

CN(C(=O)c1ccc(-c2noc(C(F)(F)F)n2)cc1F)C(C)(C)C [Compound 3b.37, N-tert-butyl-2-fluoro-N-methyl-4-[5-(trifluoromethyl)-1,2,4-oxadiazol-3-yl]benzamide]
≥ 80%: inhibition at 20 ppm [1] | pest or weed control at 200 ppm [2] | pest or weed control at 200 ppm [3] | pest or weed control at 200 ppm [4]

CC(C)CCNC(=O)c1ccc(-c2noc(C(F)(F)F)n2)cc1F [Compound 3b.41, 2-fluoro-N-isopentyl-4-[5-(trifluoromethyl)-1,2,4-oxadiazol-3-yl]benzamide]
≥ 80%: inhibition at 20 ppm [1] | pest or weed control at 200 ppm [2] | pest or weed control at 200 ppm [3] | pest or weed control at 200 ppm [4]

COCC(C)NC(=O)c1ccc(-c2noc(C(F)(F)F)n2)cc1 (stereo not shown) [Compound 3a.37, N-(2-methoxy-1-methyl-ethyl)-4-[5-(trifluoromethyl)-1,2,4-oxadiazol-3-yl]benzamide]
≥ 80%: inhibition at 20 ppm [1] | pest or weed control at 200 ppm [2] | pest or weed control at 200 ppm [3] | pest or weed control at 200 ppm [4]

CC(C)(O)CNC(=O)c1ccc(-c2noc(C(F)(F)F)n2)cc1F [Compound 3b.29, 2-fluoro-N-(2-hydroxy-2-methyl-propyl)-4-[5-(trifluoromethyl)-1,2,4-oxadiazol-3-yl]benzamide]
≥ 80%: inhibition at 20 ppm [1] | pest or weed control at 200 ppm [2] | pest or weed control at 200 ppm [3] | pest or weed control at 200 ppm [4]

C=C(C)CN(CC)C(=O)c1ccc(-c2noc(C(F)(F)F)n2)cc1 [Compound 3a.31, N-ethyl-N-(2-methylallyl)-4-[5-(trifluoromethyl)-1,2,4-oxadiazol-3-yl]benzamide]
≥ 80%: inhibition at 20 ppm [1] | pest or weed control at 200 ppm [2] | pest or weed control at 200 ppm [3] | pest or weed control at 200 ppm [4]

CCCCN(C)C(=O)c1ccc(-c2noc(C(F)(F)F)n2)cc1F [Compound 3b.38, N-butyl-2-fluoro-N-methyl-4-[5-(trifluoromethyl)-1,2,4-oxadiazol-3-yl]benzamide]
≥ 80%: inhibition at 20 ppm [1] | pest or weed control at 200 ppm [2] | pest or weed control at 200 ppm [3] | pest or weed control at 200 ppm [4]

CCC(O)CNC(=O)c1ccc(-c2noc(C(F)(F)F)n2)cc1F (stereo not shown) [Compound 3b.16, 2-fluoro-N-(2-hydroxybutyl)-4-[5-(trifluoromethyl)-1,2,4-oxadiazol-3-yl]benzamide]
≥ 80%: inhibition at 20 ppm [1] | pest or weed control at 200 ppm [2] | pest or weed control at 200 ppm [3] | pest or weed control at 200 ppm [4]

CCN(CC)C(=O)c1ccc(-c2noc(C(F)(F)F)n2)cc1 [Compound 3a.30, N,N-diethyl-4-[5-(trifluoromethyl)-1,2,4-oxadiazol-3-yl]benzamide]
≥ 80%: inhibition at 20 ppm [1] | pest or weed control at 200 ppm [2] | pest or weed control at 200 ppm [3] | pest or weed control at 200 ppm [4]

O=C(NCCCCCl)c1ccc(-c2noc(C(F)(F)F)n2)cc1 [Compound 3a.20, N-(4-chlorobutyl)-4-[5-(trifluoromethyl)-1,2,4-oxadiazol-3-yl]benzamide]
≥ 80%: inhibition at 20 ppm [1] | pest or weed control at 200 ppm [2] | pest or weed control at 200 ppm [3] | pest or weed control at 200 ppm [4]

C=C(C)CN(CC)C(=O)c1ccc(-c2noc(C(F)(F)F)n2)cc1F [Compound 3b.33, N-ethyl-2-fluoro-N-(2-methylallyl)-4-[5-(trifluoromethyl)-1,2,4-oxadiazol-3-yl]benzamide]
≥ 80%: inhibition at 20 ppm [1] | pest or weed control at 200 ppm [2] | pest or weed control at 200 ppm [3] | pest or weed control at 200 ppm [4]

COCCN(C(=O)c1ccc(-c2noc(C(F)(F)F)n2)cc1)C(C)C [Compound 3a.12, N-isopropyl-N-(2-methoxyethyl)-4-[5-(trifluoromethyl)-1,2,4-oxadiazol-3-yl]benzamide]
≥ 80%: inhibition at 20 ppm [1] | pest or weed control at 200 ppm [2] | pest or weed control at 200 ppm [3] | pest or weed control at 200 ppm [4]

CN(C(=O)c1ccc(-c2noc(C(F)(F)F)n2)cc1)C(C)(C)C [Compound 3a.35, N-tert-butyl-N-methyl-4-[5-(trifluoromethyl) 1,2,4-oxadiazol-3-yl]benzamide]
≥ 80%: inhibition at 20 ppm [1] | pest or weed control at 200 ppm [2] | pest or weed control at 200 ppm [3] | pest or weed control at 200 ppm [4]

O=C(Nc1nc(Br)n[nH]1)c1ccc(-c2noc(C(F)(F)F)n2)cc1 [Compound 5a.6, N-(3-bromo-1H-1,2,4-triazol-5-yl)-4-[5-(trifluoromethyl)-1,2,4-oxadiazol-3-yl]benzamide]
≥ 80%: inhibition at 20 ppm [1] | pest or weed control at 200 ppm [2] | pest or weed control at 200 ppm [3] | pest or weed control at 200 ppm [4]

CCC(C)NC(=O)c1ccc(-c2noc(C(F)(F)F)n2)cc1F (stereo not shown) [Compound 3b.10, 2-fluoro-N-sec-butyl-4-[5-(trifluoromethyl)-1,2,4-oxadiazol-3-yl]benzamide]
≥ 80%: inhibition at 20 ppm [1] | pest or weed control at 200 ppm [2] | pest or weed control at 200 ppm [3] | pest or weed control at 200 ppm [4]

O=C(NCCO)c1ccc(-c2noc(C(F)(F)F)n2)cc1F [Compound 3b.21, 2-fluoro-N-(2-hydroxyethyl)-4-[5-(trifluoromethyl)-1,2,4-oxadiazol-3-yl]benzamide]
≥ 80%: inhibition at 20 ppm [1] | pest or weed control at 200 ppm [2] | pest or weed control at 200 ppm [3] | pest or weed control at 200 ppm [4]

CC(O)CNC(=O)c1ccc(-c2noc(C(F)(F)F)n2)cc1 (stereo not shown) [Compound 3a.10, N-(2-hydroxypropyl)-4-[5-(trifluoromethyl)-1,2,4-oxadiazol-3-yl]benzamide]
≥ 80%: inhibition at 20 ppm [1] | pest or weed control at 200 ppm [2] | pest or weed control at 200 ppm [3] | pest or weed control at 200 ppm [4]

CCCN(C)C(=O)c1ccc(-c2noc(C(F)(F)F)n2)cc1 [Compound 3a.33, N-methyl-N-propyl-4-[5-(trifluoromethyl)-1,2,4-oxadiazol-3-yl]benzamide]
≥ 80%: inhibition at 20 ppm [1] | pest or weed control at 200 ppm [2] | pest or weed control at 200 ppm [3] | pest or weed control at 200 ppm [4]

CC(C)NC(=O)c1ccc(-c2noc(C(F)(F)F)n2)cc1F [Compound 3b.27, 2-fluoro-N-isopropyl-4-[5-(trifluoromethyl)-1,2,4-oxadiazol-3-yl]benzamide]
≥ 80%: inhibition at 20 ppm [1] | pest or weed control at 200 ppm [2] | pest or weed control at 200 ppm [3] | pest or weed control at 200 ppm [4]

CC(C)OCCNC(=O)c1ccc(-c2noc(C(F)(F)F)n2)cc1 [Compound 3a.40, N-(2-isopropoxyethyl)-4-[5-(trifluoromethyl)-1,2,4-oxadiazol-3-yl]benzamide]
≥ 80%: inhibition at 20 ppm [1] | pest or weed control at 200 ppm [2] | pest or weed control at 200 ppm [3] | pest or weed control at 200 ppm [4]

COCCN(C)C(=O)c1ccc(-c2noc(C(F)(F)F)n2)cc1F [Compound 3b.19, 2-fluoro-N-(2-methoxyethyl)-N-methyl-4-[5-(trifluoromethyl)-1,2,4-oxadiazol-3-yl]benzamide]
≥ 80%: inhibition at 20 ppm [1] | pest or weed control at 200 ppm [2] | pest or weed control at 200 ppm [3] | pest or weed control at 200 ppm [4]

CCN(C(=O)c1ccc(-c2noc(C(F)(F)F)n2)cc1F)C(C)C [Compound 3b.35, N-ethyl-2-fluoro-N-isopropyl-4-[5-(trifluoromethyl)-1,2,4-oxadiazol-3-yl]benzamide]
≥ 80%: inhibition at 20 ppm [1] | pest or weed control at 200 ppm [2] | pest or weed control at 200 ppm [3] | pest or weed control at 200 ppm [4]

CCCN(C)C(=O)c1ccc(-c2noc(C(F)(F)F)n2)cc1F [Compound 3b.34, 2-fluoro-N-methyl-N-propyl-4-[5-(trifluoromethyl)-1,2,4-oxadiazol-3-yl]benzamide]
≥ 80%: inhibition at 20 ppm [1] | pest or weed control at 200 ppm [2] | pest or weed control at 200 ppm [3] | pest or weed control at 200 ppm [4]

CCCCN(C)C(=O)c1ccc(-c2noc(C(F)(F)F)n2)cc1 [Compound 3a.36, N-butyl-N-methyl-4-[5-(trifluoromethyl)-1,2,4-oxadiazol-3-yl]benzamide]
≥ 80%: inhibition at 20 ppm [1] | pest or weed control at 200 ppm [2] | pest or weed control at 200 ppm [3] | pest or weed control at 200 ppm [4]
